# Results reported in ChEMBL document CHEMBL1139105, “1,2,3-Thiadiazole substituted pyrazolones as potent KDR/VEGFR-2 kinase inhibitors” (Bioorg Med Chem Lett, 2007).
# Assays:
# [1] = target: Vascular endothelial growth factor receptor 2 (Homo sapiens, UniProt P35968); experiment: Inhibition of human cytoplasmic VEGFR2 expressed in baculovirus after 15 mins by time resolved fluorescence assay
# [2] = Half life in rat at 5 mg/kg, po; assay type: ADME, organism-based; design: dose 5 mg/kg, route oral; details: in vivo
# Rattus norvegicus [3] = experiment: (§1) AUC in rat at 1 mg/kg, iv; assay type: ADME, organism-based, Plasma; design: dose 1 mg/kg, route intravenous; details: in vivo
# [4] = Volume of distribution in rat at 1 mg/kg, iv; assay type: ADME, organism-based; design: dose 1 mg/kg, route intravenous; details: in vivo, read-out: Vdss
# [5] = Half life in rat at 1 mg/kg, iv; assay type: ADME, organism-based; design: dose 1 mg/kg, route intravenous; details: in vivo
# Rattus norvegicus [6] = experiment: (§2) Oral bioavailability in rat at 5 mg/kg; assay type: ADME, organism-based; details: in vivo
# Rattus norvegicus [7] = experiment: (§3) AUC in rat at 5 mg/kg, po; assay type: ADME, organism-based, Plasma; design: dose 5 mg/kg, route oral; details: in vivo
# [8] = Cmax in rat at 5 mg/kg, po; assay type: ADME, organism-based; design: dose 5 mg/kg, route oral; details: in vivo
# [9] = Clearance in rat at 1 mg/kg, iv; assay type: ADME, organism-based; design: dose 1 mg/kg, route intravenous; details: in vivo
# [10] = as §1; assay type: ADME, organism-based, Plasma; design: dose 1 mg/kg, route intravenous; details: plasma
# [11] = target: High affinity nerve growth factor receptor (Homo sapiens, UniProt P04629); experiment: Inhibition of TRK A
# [12] = target: Vascular endothelial growth factor receptor 1 (Homo sapiens, UniProt P17948); experiment: Inhibition of VEGFR1
# Angiopoietin-1 receptor = Angiopoietin-1 receptor (Homo sapiens, UniProt Q02763); experiment: Inhibition of Tie2
# [13] = target: Proto-oncogene tyrosine-protein kinase Src (Homo sapiens, UniProt P12931); experiment: Inhibition of SRC
# [14] = target: Vascular endothelial growth factor receptor 3 (Homo sapiens, UniProt P35916); experiment: Inhibition of VEGFR3
# [15] = as §2; assay type: ADME, organism-based; details: in vivo
# [16] = as §3; assay type: ADME, organism-based, Plasma; design: dose 5 mg/kg, route oral; details: plasma
# Sequence of Vascular endothelial growth factor receptor 2 (P35968 whole entry): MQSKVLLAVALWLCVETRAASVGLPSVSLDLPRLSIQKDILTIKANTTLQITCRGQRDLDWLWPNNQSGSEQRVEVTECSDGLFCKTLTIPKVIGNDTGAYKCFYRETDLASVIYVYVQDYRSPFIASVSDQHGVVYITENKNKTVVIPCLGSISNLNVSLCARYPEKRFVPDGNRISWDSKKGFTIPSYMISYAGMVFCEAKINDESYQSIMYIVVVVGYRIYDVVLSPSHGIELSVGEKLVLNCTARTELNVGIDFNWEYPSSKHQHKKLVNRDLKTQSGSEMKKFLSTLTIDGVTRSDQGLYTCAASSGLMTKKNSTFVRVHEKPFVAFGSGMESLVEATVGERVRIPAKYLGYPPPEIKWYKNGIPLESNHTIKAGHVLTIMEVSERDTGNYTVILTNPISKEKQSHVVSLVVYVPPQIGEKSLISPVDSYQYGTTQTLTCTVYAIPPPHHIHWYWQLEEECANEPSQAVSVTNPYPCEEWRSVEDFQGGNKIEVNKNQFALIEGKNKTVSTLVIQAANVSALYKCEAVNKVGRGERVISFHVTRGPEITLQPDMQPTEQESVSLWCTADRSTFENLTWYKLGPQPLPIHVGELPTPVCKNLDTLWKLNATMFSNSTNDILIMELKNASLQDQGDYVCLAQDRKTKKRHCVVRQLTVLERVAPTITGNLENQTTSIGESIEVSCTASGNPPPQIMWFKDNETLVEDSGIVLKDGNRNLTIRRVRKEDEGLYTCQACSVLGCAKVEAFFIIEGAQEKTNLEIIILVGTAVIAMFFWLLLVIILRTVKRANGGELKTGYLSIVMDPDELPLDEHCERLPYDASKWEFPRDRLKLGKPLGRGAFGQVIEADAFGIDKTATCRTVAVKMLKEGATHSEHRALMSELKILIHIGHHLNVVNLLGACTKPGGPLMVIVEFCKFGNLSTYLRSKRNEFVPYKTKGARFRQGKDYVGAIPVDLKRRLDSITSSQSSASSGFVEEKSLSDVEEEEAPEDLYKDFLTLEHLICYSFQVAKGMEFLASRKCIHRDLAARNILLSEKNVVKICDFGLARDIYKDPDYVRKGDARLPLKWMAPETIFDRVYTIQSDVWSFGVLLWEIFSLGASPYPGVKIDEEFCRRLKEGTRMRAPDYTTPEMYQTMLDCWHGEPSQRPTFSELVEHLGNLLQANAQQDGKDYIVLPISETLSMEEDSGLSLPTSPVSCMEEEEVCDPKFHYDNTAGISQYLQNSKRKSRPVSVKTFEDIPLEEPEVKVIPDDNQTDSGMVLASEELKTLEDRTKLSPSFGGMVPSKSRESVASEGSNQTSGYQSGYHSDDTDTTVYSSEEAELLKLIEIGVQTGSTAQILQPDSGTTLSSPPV
# Sequence of High affinity nerve growth factor receptor (P04629 whole entry): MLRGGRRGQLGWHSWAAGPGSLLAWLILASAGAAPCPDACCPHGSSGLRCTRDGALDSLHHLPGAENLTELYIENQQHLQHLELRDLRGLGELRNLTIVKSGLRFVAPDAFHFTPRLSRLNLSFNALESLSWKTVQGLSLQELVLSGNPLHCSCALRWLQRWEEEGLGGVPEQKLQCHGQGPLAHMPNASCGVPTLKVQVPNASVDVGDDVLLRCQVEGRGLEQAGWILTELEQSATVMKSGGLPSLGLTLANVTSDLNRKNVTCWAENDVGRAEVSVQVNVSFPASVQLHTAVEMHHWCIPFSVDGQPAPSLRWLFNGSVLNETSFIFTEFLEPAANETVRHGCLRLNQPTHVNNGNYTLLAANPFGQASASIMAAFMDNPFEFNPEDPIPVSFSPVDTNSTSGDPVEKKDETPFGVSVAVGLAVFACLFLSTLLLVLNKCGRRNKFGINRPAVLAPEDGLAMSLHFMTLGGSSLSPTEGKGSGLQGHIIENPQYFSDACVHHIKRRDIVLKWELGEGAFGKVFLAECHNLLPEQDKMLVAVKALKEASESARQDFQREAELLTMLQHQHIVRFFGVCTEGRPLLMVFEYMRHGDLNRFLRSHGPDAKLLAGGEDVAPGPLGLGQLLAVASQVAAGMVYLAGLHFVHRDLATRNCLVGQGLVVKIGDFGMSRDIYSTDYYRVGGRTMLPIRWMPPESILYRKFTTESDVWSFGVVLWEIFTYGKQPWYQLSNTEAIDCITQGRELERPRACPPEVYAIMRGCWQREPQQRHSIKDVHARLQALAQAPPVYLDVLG
# Sequence of Vascular endothelial growth factor receptor 1 (P17948 whole entry): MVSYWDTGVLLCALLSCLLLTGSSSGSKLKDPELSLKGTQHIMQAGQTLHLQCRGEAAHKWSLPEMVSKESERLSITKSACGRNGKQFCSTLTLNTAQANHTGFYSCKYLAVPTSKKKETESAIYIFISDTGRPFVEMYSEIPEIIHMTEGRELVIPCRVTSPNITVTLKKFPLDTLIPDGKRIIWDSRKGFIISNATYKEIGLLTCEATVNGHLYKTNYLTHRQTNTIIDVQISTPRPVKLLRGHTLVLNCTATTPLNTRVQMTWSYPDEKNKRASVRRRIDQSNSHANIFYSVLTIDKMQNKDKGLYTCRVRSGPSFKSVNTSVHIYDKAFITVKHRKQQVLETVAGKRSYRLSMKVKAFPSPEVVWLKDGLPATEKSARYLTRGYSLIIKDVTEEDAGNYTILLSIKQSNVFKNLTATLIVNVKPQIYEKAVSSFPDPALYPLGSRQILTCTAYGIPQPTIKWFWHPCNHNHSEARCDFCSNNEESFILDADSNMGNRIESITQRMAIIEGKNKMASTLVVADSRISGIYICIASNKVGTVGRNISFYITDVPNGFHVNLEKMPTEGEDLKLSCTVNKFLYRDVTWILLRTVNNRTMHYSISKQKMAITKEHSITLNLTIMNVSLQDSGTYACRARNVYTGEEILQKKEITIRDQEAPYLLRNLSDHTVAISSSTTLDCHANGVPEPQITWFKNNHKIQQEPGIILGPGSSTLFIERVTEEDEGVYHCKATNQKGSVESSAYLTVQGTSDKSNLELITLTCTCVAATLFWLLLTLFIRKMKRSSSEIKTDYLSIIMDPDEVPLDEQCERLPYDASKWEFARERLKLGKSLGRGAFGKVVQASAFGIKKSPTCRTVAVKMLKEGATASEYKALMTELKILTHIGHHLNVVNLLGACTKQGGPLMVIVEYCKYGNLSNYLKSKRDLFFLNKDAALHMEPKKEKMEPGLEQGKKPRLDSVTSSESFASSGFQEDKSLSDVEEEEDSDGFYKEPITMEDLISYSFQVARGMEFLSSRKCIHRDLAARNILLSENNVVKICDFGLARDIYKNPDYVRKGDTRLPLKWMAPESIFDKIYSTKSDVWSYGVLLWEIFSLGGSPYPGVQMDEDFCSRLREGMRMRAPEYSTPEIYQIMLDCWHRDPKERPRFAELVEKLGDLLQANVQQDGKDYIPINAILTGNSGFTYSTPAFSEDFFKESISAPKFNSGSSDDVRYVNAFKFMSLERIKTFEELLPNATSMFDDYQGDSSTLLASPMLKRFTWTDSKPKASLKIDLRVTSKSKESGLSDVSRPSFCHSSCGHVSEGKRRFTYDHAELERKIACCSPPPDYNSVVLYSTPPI
# Sequence of Angiopoietin-1 receptor (Q02763 whole entry): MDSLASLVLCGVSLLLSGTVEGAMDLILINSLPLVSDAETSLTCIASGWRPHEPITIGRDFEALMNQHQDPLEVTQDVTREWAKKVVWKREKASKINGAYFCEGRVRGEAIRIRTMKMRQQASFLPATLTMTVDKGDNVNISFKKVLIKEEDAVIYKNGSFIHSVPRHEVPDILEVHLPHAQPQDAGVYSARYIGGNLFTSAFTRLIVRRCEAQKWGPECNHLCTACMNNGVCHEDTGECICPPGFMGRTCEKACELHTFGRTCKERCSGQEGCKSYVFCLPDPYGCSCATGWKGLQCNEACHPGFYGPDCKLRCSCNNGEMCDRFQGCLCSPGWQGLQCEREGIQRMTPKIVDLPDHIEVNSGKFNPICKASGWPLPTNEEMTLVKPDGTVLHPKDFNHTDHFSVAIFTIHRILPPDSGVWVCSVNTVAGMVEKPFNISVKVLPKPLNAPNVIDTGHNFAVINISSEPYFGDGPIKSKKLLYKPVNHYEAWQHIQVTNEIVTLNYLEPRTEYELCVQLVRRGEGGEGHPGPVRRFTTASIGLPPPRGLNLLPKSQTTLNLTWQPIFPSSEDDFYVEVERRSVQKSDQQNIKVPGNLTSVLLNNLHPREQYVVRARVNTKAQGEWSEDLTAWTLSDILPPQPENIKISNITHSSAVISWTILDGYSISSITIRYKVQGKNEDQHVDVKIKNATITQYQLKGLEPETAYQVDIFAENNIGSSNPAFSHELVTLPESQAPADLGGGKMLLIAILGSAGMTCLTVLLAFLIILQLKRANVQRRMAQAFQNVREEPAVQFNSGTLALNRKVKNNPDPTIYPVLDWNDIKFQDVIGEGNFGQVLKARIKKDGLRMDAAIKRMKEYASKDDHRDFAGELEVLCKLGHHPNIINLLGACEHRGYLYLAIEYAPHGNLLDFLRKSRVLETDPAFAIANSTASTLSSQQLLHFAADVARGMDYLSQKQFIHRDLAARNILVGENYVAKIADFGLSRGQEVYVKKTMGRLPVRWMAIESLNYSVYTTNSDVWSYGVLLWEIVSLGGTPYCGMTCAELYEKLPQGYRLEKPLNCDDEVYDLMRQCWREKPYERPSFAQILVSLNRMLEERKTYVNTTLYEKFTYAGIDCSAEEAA
Structure (SMILES),IC50 [1] [nM],Vd [4] [L/kg],half-life [5] [min],clearance [9] [mL/min/kg],AUC [10] [ng·h/mL],other results
Cc1nnsc1C1=NNC(=O)/C1=C\c1c[nH]c2ccccc12,> 1000,–,–,–,–,–
Cc1nnsc1C1=NNC(=O)/C1=C\c1c[nH]c2ccc(Cl)cc12,> 300,–,–,–,–,–
Cn1cc(/C=C2\C(=O)NN=C2c2nccs2)c2c(F)cccc21,–,0.23,36,4.6,3600,half-life [2]: 72 min; bioavailability [15]: 3%; AUC [16]: 1040 ng·h/mL; Cmax [8]: 139 ng/mL

# Continued, in another order:
IC50 [1] [nM],Vd [4] [L/kg],half-life [5] [min],clearance [9] [mL/min/kg],AUC [10] [ng·h/mL],Structure (SMILES),other results
> 300,–,–,–,–,Cc1nnsc1C1=NNC(=O)/C1=C\c1cn(C)c2ccc(C#N)cc12,–
–,1.1,30,25,–,Cc1nnsc1C1=NNC(=O)/C1=C\c1cn(C)c2ccc(F)cc12,half-life [2]: 84 min; AUC (Rattus norvegicus [3]): 727 ng·h/mL; F (Rattus norvegicus [6]): 29%; AUC (Rattus norvegicus [7]): 507 ng·h/mL; Cmax [8]: 356 ng/mL
–,1.1,54,15,1140,CCOc1cccc2c1c(/C=C1\C(=O)NN=C1c1snnc1C)cn2C,IC50 [11]: 36 nM; IC50 [12]: > 3000 nM; IC50 (Angiopoietin-1 receptor): > 10000 nM; IC50 [13]: 463 nM; IC50 [14]: 16 nM
–,2.2,18,87,192,COc1cccc2c1c(/C=C1\C(=O)NN=C1c1snnc1C)cn2C,–
